The text below walks through data of article PMC12843137, “Fine-Tuning Side Chain Substitutions: Impacts on the Lipophilicity–Solubility–Permeability Interplay in Macrocyclic Peptides” (Marine Drugs, 2025).

Each structure is given as a SMILES string. Read-outs that look alike come from different tables or passages of the source.

One assay deals with PANC-1 cells. As to conditions: CCK-8; cited from earlier work.
The test system of a further assay is PATU8988T cells. Briefly: CCK-8 antiproliferative assay, PATU8988T. As to conditions: Homo sapiens, PaTu 8988t; CCK-8, 72 h, mean ± SEM (n = 3); read-out: Cell proliferation IC50 PATU8988T. It is filed as cell-based. The method, then: (§1) The inhibitory activities against human pancreatic cancer PANC-1 cells of the synthesized compounds were evaluated by CCK-8 assay.
(§2) Human pancreatic cancer cell lines PANC-1, PATU8988T and BxPC3 were purchased from the Cancer Institute & Hospital of the Chinese Academy of Medical Sciences (Shanghai, China). All three cell lines were cultured in RPMI-DMEM medium containing 10% fetal bovine serum, cultured at a constant temperature of 37 °C in a humidified incubator with 5% CO2.
(§3) Pancreatic cancer cells are seeded into 96-well plates. After a proliferation time of 16 h, different concentrations of compounds are added into the corresponding wells and incubated for 72 h. 10 μL of CCK-8 solution is added into each well and incubated for 1–4 h at 37 °C. Shake the plates and read the OD value of each well at 450 nm on a microplate reader.
(§4) 1. Characterization of biological activity
(§5) Supplementary Figure S1. Cell viability is assessed using the CCK -8 assay following 72 h treatment with the tested compounds in pancreatic cancer cell lines: a) PATU8988T, b) BxPC3.
(§6) Supplementary Table S1. The effects of compounds against two pancreatic cancer cell lines were evaluated using […]
(§7) Cell proliferation IC 50(µM)a
(§8) [a] IC50 va lues of the tested compounds ar e determined in PATU8988T an d BxPC3 cells. […]
(§9) Supplementary Figure S2. Convergence of the PMF calculated from WTM -eABF simulation . […]
(In general: Tetrazolium assays rely on reduction of a dye to a coloured formazan, in cell work by metabolically active cells.)

A further assay deals with BxPC3 cells. Nature of the assay: CCK-8 antiproliferative assay, BxPC3. It is filed as cell-based. As to conditions: Homo sapiens, BXPC-3, 72 h, CCK-8, 72 h, mean ± SEM (n = 3); read-out: Cell proliferation IC50 BxPC3. As for the experimental part:
as §1, §2, §3, §4, §5, §6, §7, §8, §9

The target of a further assay is T1, recombinant human eEF1A1 (Homo sapiens, UniProt P68104).
T1 construct: purchased TMPH-01283
T1 sequence (P68104 1-462): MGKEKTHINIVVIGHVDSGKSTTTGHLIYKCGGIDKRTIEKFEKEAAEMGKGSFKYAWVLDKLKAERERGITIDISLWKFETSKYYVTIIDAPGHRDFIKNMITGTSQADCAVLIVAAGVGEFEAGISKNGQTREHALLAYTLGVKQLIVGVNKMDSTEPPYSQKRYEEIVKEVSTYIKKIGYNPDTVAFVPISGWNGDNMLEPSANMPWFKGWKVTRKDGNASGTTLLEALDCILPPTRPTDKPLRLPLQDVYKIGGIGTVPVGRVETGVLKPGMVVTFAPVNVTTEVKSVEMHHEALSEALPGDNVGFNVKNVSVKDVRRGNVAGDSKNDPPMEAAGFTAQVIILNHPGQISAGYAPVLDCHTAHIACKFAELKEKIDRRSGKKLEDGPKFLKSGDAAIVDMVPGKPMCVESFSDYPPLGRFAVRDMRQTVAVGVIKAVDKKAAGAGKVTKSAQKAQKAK
Briefly: MicroScale Thermophoresis (MST) binding assay. As to conditions: for Kd: MST, 50 mM HEPES pH 7.4, 0.05% Tween-20, triplicate, mean ± SD. From the text:
To investigate whether the loss of cellular activity in the BE derivatives results from diminished binding to the known intracellular target eEF1A1, we assessed direct target engagement using MST. Recombinant human eEF1A1 protein was titrated against the compounds, which were supplied in HEPES buffer (pH 7.4) and diluted as required. Binding interactions were quantified by monitoring changes in thermophoretic mobility. Detailed materials and protein labeling procedures are provided in the Supporting Information.
Compounds were serially diluted (16-point, 2-fold) in assay buffer (50 mM HEPES, pH 7.4, 0.05% Tween-20) as ligands. Labeled eEF1A1 protein (target) was mixed 1:1 with each dilution and incubated at room temperature for 20 min. Samples were loaded into premium capillaries and analyzed on the Monolith X instrument following the manufacturer’s protocol, with infrared laser excitation at 1480 nm to generate a temperature gradient. Thermophoretic mobility was monitored via fluorescence changes before, during, and after laser activation.
Data were analyzed using NanoTemper Analysis software (version 2.3) to fit binding curves and determine dissociation constants (Kd). Experiments were performed in triplicate, and Kd values are reported as mean ± standard deviation.
The Lucifer Yellow fluorescence (to monitor monolayer integrity) signal is measured in a fluorescence plate reader at 485 nm excitation and 530 nm emission.
The leakage of Lucifer Yellow, in unit of percentage (%), can be calculated using the following equation:
%LY leakage = 100×[LY]acceptor/([LY]donor+[LY]acceptor)
Where [LY]acceptor is the fluorescence intensity in the acceptor well (0.3 mL), and [LY]donor is the fluorescence intensity in the donor well (0.1 mL) and expressed as % leakage. The percentage of Lucifer yellow leakage […]
should be less than 1.0%. […]
monolayers will be compared. […]
those in the replicate transwells (CV<30%), the monolayer's Papp data will be considered valid and […]
Supplementary Table S3. The assessment of caco-2 cell monolayer integrity. […]
Background: In MST a laser heats a spot of the sample, and binding alters the fluorescence response.

As to `CCCCCCCCCCCCCC1OC(=O)CN(C)C(=O)C=CC(CN2CCN(C)CC2)NC(=O)CNC(=O)C(C)(O)C(=O)C1C` (centres unmarked) [BE-NMP], in the assay on PANC-1 cells, the IC50 is 0.65 ± 0.19 µM.

Consider `CCCCOc1ccc(-c2ccc(-c3ccc(Cn4cc(CCCCC[C@H]5OC(=O)CN(C)C(=O)/C=C/[C@@H](CN6CCN(C)CC6)NC(=O)CNC(=O)[C@@](C)(O)C(=O)[C@H]5C)nn4)cc3)cc2)cc1` [Compound 29], for which the IC50 in the assay on PATU8988T cells and in the assay with BxPC3 cells was greater than 50 µM in each case. Further, the equilibrium dissociation constant (Kd) on recombinant human eEF1A1 (read-out: Kd) turned out to be 7.82 ± 0.63 µM. Also, the “fold weaker affinity than the parent BE” value at recombinant human eEF1A1 (ratio of MST Kd values) is recorded as “approximately 3.4 fold”.

Turning to `CC1C(=O)C(C)(O)C(=O)NCC(=O)NC(CN2CCN(C)CC2)C=CC(=O)N(C)CC(=O)OC1CCCCc1cn(CCCCCCCCNC(=N)N)nn1` (centres unmarked) [Compound 31], the IC50 is greater than 50 µM with PATU8988T cells and greater than 100 µM in the assay on BxPC3 cells. In addition, the dissociation constant (Kd) result at recombinant human eEF1A1 is given as “no detectable binding”.

Broadly, the Kd is the free concentration of one partner at which half of the binding sites on the other are occupied at equilibrium, for simple one-to-one binding.
